Assay results taken from US20200411135A1, “Neoantigen Identification with Pan-Allele Models” (Gritstone Oncology, Inc., priority 2018, published 2020).
Peptide text beside a SMILES is read from it.

System: in vitro expanded PBMCs (neoantigen-reactive T-cells) from NSCLC patients
Experiment: IFN-gamma ELISpot on in vitro stimulated (IVS) patient PBMCs with patient-specific neoantigen peptides and peptide pools
Assay type: cell-based, human
Details: patient PBMCs after 14 days IVS; >2-fold increase above DMSO background considered positive
Procedure: To do so, archival FFPE tumor biopsies and 5-30 ml of peripheral blood were analyzed from 9 patients with metastatic NSCLC undergoing anti-PD(L)1 therapy (Supplementary Table 1: Patient demographics and treatment information for N=9 patients studied in FIGS. 26A-C. Key fields include tumor stage and subtype, anti-PD1 therapy received, and summary of NGS results.). […] The full MS model was applied to prioritize 20 neoepitopes per patient for testing against pre-existing anti-tumor T-cell responses. To focus the analysis on likely CD8 responses, the prioritized peptides were synthesized as 8-11mer minimal epitopes (Methods), and then peripheral blood mononuclear cells (PBMCs) were cultured with the synthesized peptides in short in vitro stimulation (IVS) cultures to expand neoantigen-reactive T-cells (Supplementary Table 2). After two weeks the presence of antigen-specific T-cells was assessed using IFN-gamma ELISpot against the prioritized neoepitopes. In seven patients for whom sufficient PBMCs were available, separate experiments were also performed to fully or partially deconvolve the specific antigens recognized. The results are depicted in FIGS. 26A-C and 27A-30.
FIG. 26A depicts detection of T-cell responses to patient-specific neoantigen peptide pools for nine patients. For each patient, predicted neoantigens were combined into 2 pools of 10 peptides each according to model ranking and any sequence homologies (homologous peptides were separated into different pools). Then, for each patient, the in vitro expanded PBMCs for the patient were stimulated with the 2 patient-specific neoantigen peptide pools in IFN-gamma ELISpot. Data in FIG. 26A are presented as spot forming units (SFU) per […] plated cells with background (corresponding DMSO negative controls) subtracted. Responses of single wells (patients 1-038-001, CU02, CU03 and 1-050-001) or replicates with mean and standard deviation (all other patients) against cognate peptide pools #1 and #2 are shown for patients 1-038-001, 1-050-001, 1-001-002, CU04, 1-024-001, 1-024-002 and CU05. For patients CU02 and CU03, cell numbers allowed testing against specific peptide pool #1 only. Samples with values >2-fold increase above background were considered positive and are designated with a star (responsive donors include patients 1-038-001, CU04, 1-024-001, 1-024-002, and CU02). Unresponsive donors include patients 1-050-001, 1-001-002, CU05, and CU03. […] depicts photographs of ELISpot wells with in vitro expanded PBMCs from patient CU04, stimulated in IFN-gamma ELISpot with DMSO negative control, PHA positive control, CU04-specific neoantigen peptide pool #1, CU04-specific peptide 1, CU04-specific peptide 6, and CU04-specific peptide 8.
Pre-existing T-cells from healthy donor or patient samples were expanded in the presence of cognate peptides and IL-2 in a similar approach to that applied by Ott el al.^81 Briefly, thawed PBMCs were rested overnight and stimulated in the presence of peptide pools (10 μM per peptide, 10 peptides per pool) in ImmunoCult™-XF T-cell Expansion Medium ([…] Technologies) with 10 IU/ml rhIL-2 (R&D Systems Inc., Minneapolis, Minn.) for 14 days in 24-well tissue culture plates. Cells were seeded at 2×10^6 cells/well and fed every 2-3 days by replacing 2/3 of the culture media.
Detection of IFNγ-producing T-cells was performed by ELISpot assay^142. […]

Row | Structure (SMILES) | T-cell response / recognition in IFN-gamma ELISpot
1 | CC(C)C[C@H](NC(=O)[C@@H](NC(=O)[C@H](CC(=O)O)NC(=O)[C@@H](NC(=O)[C@H](CC(=O)O)NC(=O)[C@H](CCCCN)NC(=O)[C@H](CCCCN)NC(=O)[C@@H](NC(=O)CN)[C@@H](C)O)C(C)C)C(C)C)C(=O)N[C@@H](CCCCN)C(=O)O (H-GTKKDVDVLK-OH; N-terminus and C-terminus assumed) | recognized by CD8 T-cells
2 | CC(C)[C@H](NC(=O)[C@@H](NC(=O)[C@@H](N)CC(=O)O)[C@@H](C)O)C(=O)N[C@@H](CCC(=O)O)C(=O)N[C@@H](Cc1ccc(O)cc1)C(=O)N1CCC[C@H]1C(=O)N[C@@H](Cc1ccc(O)cc1)C(=O)N[C@H](C(=O)N[C@@H](CO)C(=O)N[C@@H](Cc1ccccc1)C(=O)O)[C@@H](C)O (H-DTVEYPYTSF-OH; N-terminus and C-terminus assumed) | peptide-specific T-cell response was deconvolved
3 | CC[C@H](C)[C@H](NC(=O)[C@H](CC(N)=O)NC(=O)[C@H](CCC(=O)O)NC(=O)[C@@H](N)CC(=O)O)C(=O)N[C@H](C(=O)N[C@H](C(=O)N[C@H](C(=O)N[C@@H](CCC(N)=O)C(=O)N[C@@H](Cc1ccccc1)C(=O)O)[C@@H](C)CC)[C@@H](C)O)[C@@H](C)O (H-DENITTIQF-OH; N-terminus and C-terminus assumed) | peptide-specific T-cell response was deconvolved
4 | CSCC[C@H](NC(=O)[C@@H](NC(=O)[C@H](CC(C)C)NC(=O)[C@@H](NC(=O)[C@H](C)NC(=O)[C@H](C)NC(=O)[C@H](CC(=O)O)NC(=O)[C@H](C)NC(=O)[C@@H](NC(=O)[C@@H](N)CCC(=O)O)C(C)C)[C@@H](C)O)[C@@H](C)O)C(=O)O (H-EVADAATLTM-OH; N-terminus and C-terminus assumed) | peptide-specific T-cell response was deconvolved
5 | CC(C)[C@H](NC(=O)[C@H](CCC(N)=O)NC(=O)[C@@H](NC(=O)[C@H](CO)NC(=O)[C@@H](NC(=O)[C@H](CC(=O)O)NC(=O)[C@@H](N)CCC(N)=O)C(C)C)C(C)C)C(=O)N[C@@H](CCC(=O)O)C(=O)N[C@@H](CCCNC(=N)N)C(=O)O (H-QDVSVQVER-OH; N-terminus and C-terminus assumed) | peptide-specific T-cell response was deconvolved
